Laboratory results from PubChem BioAssay (NCI).
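At the GI50, growth is halved. TGI: total growth inhibition.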

How the values were obtained:
Experiment in all cases: DTP human tumour cell line panel, 384-well format
786-0 renal = test system: 786-0 renal
A498 renal = test system: A498 renal
A549 NSCLC = test system: A549 NSCLC
ACHN renal = test system: ACHN renal
BT-549 breast = test system: BT-549 breast
CAKI-1 renal = test system: CAKI-1 renal
CCRF-CEM leukemia = test system: CCRF-CEM leukemia
COLO 205 colon = test system: COLO 205 colon
EKVX NSCLC = test system: EKVX NSCLC
HCC-2998 colon = test system: HCC-2998 colon
HCT-116 colon = test system: HCT-116 colon
HOP-62 NSCLC = test system: HOP-62 NSCLC
HOP-92 NSCLC = test system: HOP-92 NSCLC
HS 578T breast = test system: HS 578T breast
HT29 colon = test system: HT29 colon
IGROV1 ovarian = test system: IGROV1 ovarian
KM12 colon = test system: KM12 colon
LOX IMVI melanoma = test system: LOX IMVI melanoma
M14 melanoma = test system: M14 melanoma
MALME-3M melanoma = test system: MALME-3M melanoma
MCF7 breast = test system: MCF7 breast
MDA-MB-435 melanoma = test system: MDA-MB-435 melanoma
MDA-MB-468 breast = test system: MDA-MB-468 breast
NCI-H226 lung = test system: NCI-H226 lung
NCI-H23 lung = test system: NCI-H23 lung
NCI-H322M lung = test system: NCI-H322M lung
NCI-H460 NSCLC = test system: NCI-H460 NSCLC
NCI-H522 lung = test system: NCI-H522 lung
OVCAR-3 ovarian = test system: OVCAR-3 ovarian
OVCAR-4 ovarian = test system: OVCAR-4 ovarian
PC-3 prostate = test system: PC-3 prostate
RPMI-8226 leukemia = test system: RPMI-8226 leukemia
RXF 393 renal = test system: RXF 393 renal
SF-268 CNS = test system: SF-268 CNS
SF-295 CNS = test system: SF-295 CNS
SF-539 CNS = test system: SF-539 CNS
SK-MEL-28 melanoma = test system: SK-MEL-28 melanoma
SK-MEL-5 melanoma = test system: SK-MEL-5 melanoma
SK-OV-3 ovarian = test system: SK-OV-3 ovarian
SNB-19 CNS = test system: SNB-19 CNS
SNB-75 CNS = test system: SNB-75 CNS
SR leukemia = test system: SR leukemia
SW-620 colon = test system: SW-620 colon
U251 glioblastoma = test system: U251 glioblastoma
UACC-257 melanoma = test system: UACC-257 melanoma
UACC-62 melanoma = test system: UACC-62 melanoma
UO-31 renal = test system: UO-31 renal

O=C(c1ccccc1O)c1[nH]c(Cl)c(Cl)c1-n1c(C(=O)c2ccccc2O)cc(Cl)c1Cl
GI50 (786-0 renal): 619 nM
TGI (786-0 renal): 1920 nM
GI50 (A498 renal): 399 nM
TGI (A498 renal): 1760 nM
GI50 (A549 NSCLC): 654 nM
TGI (A549 NSCLC): 2480 nM
GI50 (ACHN renal): 649 nM
TGI (ACHN renal): 2780 nM
GI50 (BT-549 breast): 631 nM
TGI (BT-549 breast): 1620 nM
GI50 (CAKI-1 renal): 411 nM
TGI (CAKI-1 renal): 2190 nM
GI50 (CCRF-CEM leukemia): 240 nM
TGI (CCRF-CEM leukemia): 705 nM
GI50 (COLO 205 colon): 747 nM
TGI (COLO 205 colon): 3800 nM
GI50 (EKVX NSCLC): 230 nM
TGI (EKVX NSCLC): 842 nM
GI50 (HCC-2998 colon): 537 nM
TGI (HCC-2998 colon): 1950 nM
GI50 (HCT-116 colon): 248 nM
TGI (HCT-116 colon): 930 nM
GI50 (HOP-62 NSCLC): 552 nM
TGI (HOP-62 NSCLC): 1590 nM
GI50 (HOP-92 NSCLC): 458 nM
TGI (HOP-92 NSCLC): 1160 nM
GI50 (HS 578T breast): 157 nM
TGI (HS 578T breast): 440 nM
GI50 (HT29 colon): 518 nM
TGI (HT29 colon): 4330 nM
GI50 (IGROV1 ovarian): 521 nM
TGI (IGROV1 ovarian): 8560 nM
GI50 (KM12 colon): 537 nM
TGI (KM12 colon): 1930 nM
GI50 (LOX IMVI melanoma): 833 nM
TGI (LOX IMVI melanoma): 2330 nM
GI50 (M14 melanoma): 682 nM
TGI (M14 melanoma): 2380 nM
GI50 (MALME-3M melanoma): 670 nM
TGI (MALME-3M melanoma): 2170 nM
GI50 (MCF7 breast): 263 nM
TGI (MCF7 breast): 1230 nM
GI50 (MDA-MB-435 melanoma): 801 nM
TGI (MDA-MB-435 melanoma): 3050 nM
GI50 (MDA-MB-468 breast): 13 nM
TGI (MDA-MB-468 breast): 267 nM
GI50 (NCI-H226 lung): 634 nM
TGI (NCI-H226 lung): 1890 nM
GI50 (NCI-H23 lung): 220 nM
TGI (NCI-H23 lung): 610 nM
GI50 (NCI-H322M lung): 302 nM
TGI (NCI-H322M lung): 1020 nM
GI50 (NCI-H460 NSCLC): 288 nM
TGI (NCI-H460 NSCLC): 938 nM
GI50 (NCI-H522 lung): 174 nM
TGI (NCI-H522 lung): 536 nM
GI50 (OVCAR-3 ovarian): 353 nM
TGI (OVCAR-3 ovarian): 1500 nM
GI50 (OVCAR-4 ovarian): 936 nM
TGI (OVCAR-4 ovarian): 4790 nM
GI50 (PC-3 prostate): 292 nM
TGI (PC-3 prostate): 978 nM
GI50 (RPMI-8226 leukemia): 196 nM
TGI (RPMI-8226 leukemia): 388 nM
GI50 (RXF 393 renal): 600 nM
TGI (RXF 393 renal): 2120 nM
GI50 (SF-268 CNS): 116 nM
TGI (SF-268 CNS): 871 nM
GI50 (SF-295 CNS): 448 nM
TGI (SF-295 CNS): 1300 nM
GI50 (SF-539 CNS): 537 nM
TGI (SF-539 CNS): 1630 nM
GI50 (SK-MEL-28 melanoma): 367 nM
TGI (SK-MEL-28 melanoma): 1430 nM
GI50 (SK-MEL-5 melanoma): 417 nM
TGI (SK-MEL-5 melanoma): 913 nM
GI50 (SK-OV-3 ovarian): 641 nM
TGI (SK-OV-3 ovarian): 2210 nM
GI50 (SNB-19 CNS): 373 nM
TGI (SNB-19 CNS): 3960 nM
GI50 (SNB-75 CNS): 487 nM
TGI (SNB-75 CNS): 2440 nM
GI50 (SR leukemia): 340 nM
TGI (SR leukemia): 1100 nM
GI50 (SW-620 colon): 367 nM
TGI (SW-620 colon): 1540 nM
GI50 (U251 glioblastoma): 331 nM
TGI (U251 glioblastoma): 1130 nM
GI50 (UACC-257 melanoma): 461 nM
TGI (UACC-257 melanoma): 1650 nM
GI50 (UACC-62 melanoma): 599 nM
TGI (UACC-62 melanoma): 1860 nM
GI50 (UO-31 renal): 493 nM
TGI (UO-31 renal): 1820 nM
